Assay results published in patent publication US20210085796A1, “ANTICANCER DRUGS AND METHODS OF MAKING AND USING SAME” (YALE UNIVERSITY, priority 2017, published 2021).
Entries after “also recorded” stand apart in the source; their conditions may differ.

Tests used:
[1] = system: PEO1 ovarian cancer cells; experiment: pH-dependent cell growth inhibition, transient treatment; type: cell-based; conditions: for pH dependence of cell growth inhibition: pH 7.4 vs pH 6.2
Method: FIG. 9 depicts pH-dependent cell growth inhibition of PEO1 ovarian cancer cells in culture, treated transiently with various prodrugs of the invention, as described above.
FIG. 10 depicts pH-dependent cell growth inhibition of PEO1 ovarian cancer cells in culture, treated transiently with an anticancer kinase inhibitor drug, Osimertinib, or a compound of the invention, based on an active core of that drug, YU253673.
(§1) In order to evaluate pH-dependent activity, treatments are performed at atypical cell culture conditions. […] Several cell lines have been evaluated using this method and for each, cell seeding density and treatment duration is independently experimentally determined. Each experiment is normalized to sham and complete activity controls for each pH condition.
Similar results have been obtained from pH-dependent cell growth inhibition assays with other classes of Drug using the prodrug approach.

[2] = system: MDA-MB-231 breast cancer cells; experiment: pH-dependent cell growth inhibition (CellTiter-Glo); type: cell-based, Human; conditions: 6 hours treatment at pH 7.4 or pH 6.2, then 72 hours growth
Method: Cells treated for 6 hours at pH 7.4 (normal physiological pH, X traces) or pH 6.2 (acidic solid tumor pH, Y traces) were subsequently allowed to grow in normal growth medium for 72 hours, then cell viability was evaluated using the CellTiter-Glo assay kit (Promega). Normalized percent cell growth inhibition is plotted on the left side of each panel and IC50 values reported at each pH from non-linear regression analysis.
as §1
Human MDA-MB-231 breast cancer cells seeded at low density on tissue culture treated 384-well plates, allowed to adhere and grow in serum-supplemented growth medium for 24 hours, then treated under pH-controlled conditions for 6 hours, and finally washed and grown in fresh growth media for 72 hours were assessed for cell survival using the CellTiter-Glo assay system (Promega) (FIG. 6).

[3] = cited from earlier work
HeLa cells = experiment: pH-dependent cell uptake by flow cytometry; type: cell-based; conditions: 5 μM, 1 hour, pH 7.4 vs pH 6.5
Source text: FIGS. 5A-5B depict representative flow cytometry traces of pH-dependent cell treatments. […] Normalized cell counts (Y-axes) are plotted vs. doxorubicin fluorescence intensity per cell (X-axes).

[4] = Reductive activation / doxorubicin release in 5 mM GSH (LCMS); type: in vitro ADME; conditions: 50 μM, PBS pH 7.4, 5 mM GSH, 37° C.
Method: In certain embodiments, the prodrug releases the active form of the drug once inside a cancer cell. Once inside the cell, drug release can be triggered by reduction of the disulfide bond in the linker. To evaluate the reductive activation of drug release, 50 μM YU241528 in a solution of PBS, pH 7.4, containing 5 mM GSH (a typical intracellular concentration of the predominant biological reducing agent) was incubated at 37° C. Aliquots were taken at regular intervals and analyzed by LCMS.

[5] = Serum stability of prodrug (LCMS, 490 nm absorbance); type: in vitro ADME; conditions: 50 μM in PBS pH 7.4 with 20% mouse serum, 37° C., 6 hours of incubation
Method: FIG. 4A depicts liquid chromatography data showing the stability of YU241528 in serum.
The prodrug strategies of this invention are thought to impart their benefits during the distribution and cell uptake steps of anticancer therapy. In certain embodiments, a prodrug is stable in the blood for a period sufficient to allow for cell uptake and systemic clearance. To test this, 50 μM YU241528 in a solution of PBS, pH 7.4, containing 20% mouse serum was incubated at 37° C. At regular intervals, aliquots were taken and mixed with 2 volumes of ethanol to precipitate serum proteins, then centrifuged. Supernatants were analyzed by LCMS. […] The predominant peak was identified as YU241528 by mass spectrometry.

[6] = Blood levels after tail vein injection; type: in vivo, adult female balb/c mice
Method: Given that the drug's distribution and clearance can be expected to be substantially complete by about 6 hours after administration, in certain embodiments the peak intracellular dose is achieved long before this process might interfere to a significant degree, even assuming the altered metabolite is indeed compromised in its activity. […] In certain embodiments, the serum stability of YU241528 allows for effective therapy. […] In certain embodiments, the prodrug undergoes a different elimination path, as hepatobiliary elimination of weakly-ionic organic substances is sensitive to charge, size, and lipophilicity.

EMT-6 flank tumors = experiment: In vivo efficacy and toxicity in EMT-6 flank tumor model; parameters: species or system Balb/c mice; conditions: IV once daily for 5 days
Source text: FIG. 7 depicts representative in vivo study on the efficacy and toxicity of compounds of the invention. […] Mean tumor volume and mean body weight graphs are shown for groups of 10 tumor-bearing mice.
FIG. 8 depicts the dose dependence of YU241531 (right panel) and YU244206 (left panel) treatments in the EMT-6 tumor model in Balb/c mice.

Compound	pH dependence of cell growth inhibition [1]	pH dependence of cell growth inhibition [2]	pH preference of cell uptake (HeLa cells)	body weight loss compared to sham treated controls (EMT-6 flank tumors)	also measured
C=CC(=O)Nc1cc(Nc2nccc(-c3cn(C)c4ccccc34)n2)c(OC)cc1N(C)CCN(C)C [Osimertinib, reference compound]	slightly lower IC50 value at healthy pH 7.4	–	–	–	–
COc1cccc2c1C(=O)c1c(O)c3c(c(O)c1C2=O)C[C@@](O)(C(=O)CO)C[C@@H]3O[C@H]1C[C@H](N)[C@H](O)[C@H](C)O1 [Doxorubicin, reference compound]	–	greater growth inhibition at basic healthy pH	greater uptake into cells at normal physiologic pH 7.4 than into cells at cancerous pH 6.5	–	basic pKA of amine group [3]: ~8
8-((2-((((2S,3S,4S,6R)-3-hydroxy-2-methyl-6-(((1S,3S)-3,5,12-trihydroxy-3-(2-hydroxyacetyl)-10-methoxy-6,11-dioxo-1,2,3,4,6,11-hexahydrotetracen-1-yl)oxy)tetrahydro-2H-pyran-4-yl)carbamoyl)oxy)ethyl)disulfaneyl)-2,2-dimethyloctanoic acid [YU241528]	–	–	preferentially taken up by cells at cancerous pH 6.5 versus cells at normal pH 7.4	–	t1/2 of reduction of the disulfide [4]: ~2.7 min; release of free doxorubicin / stability in serum [5]: no active doxorubicin is released; also recorded: no free doxorubicin was detected; also recorded: stable in serum; non-compartmental half-life in blood [6]: about 1 hour; level in the blood at 6 hours post injection ([6]; 6 hours): remains at detectable levels; level in the blood at 24 hours post injection ([6]; 24 hours): undetectable
C=CC(=O)Nc1cc(Nc2nccc(-c3cn(C)c4ccccc34)n2)c(OC)cc1N(C)CCCc1c(F)c(F)c(O)c(F)c1F [YU253673, N-(4-methoxy-2-(methyl(3-(2,3,5,6-tetrafluoro-4-hydroxyphenyl)propyl)amino)-5-((4-(1-methyl-1H-indol-3-yl)pyrimidin-2-yl)amino)phenyl)acrylamide]	far greater activity at tumor pH 6.2	–	–	–	cell growth inhibition at pH 6.2 ([1]; pH 6.2): potent cell growth inhibition; fold greater activity in tumor pH conditions compared with healthy pH conditions ([1]; pH 6.2 vs pH 7.4): more than 30 fold; cell growth inhibition at pH 7.4 ([1]; pH 7.4): no observed activity
COc1cccc2c1C(=O)c1c(O)c3c(c(O)c1C2=O)C[C@@](O)(C(=O)CO)C[C@@H]3O[C@H]1C[C@H](NC(=O)OCCSSCCCCCCCC(=O)O)[C@H](O)[C@H](C)O1 [YU241531, 8-((2-((((2S,3S,4S,6R)-3-hydroxy-2-methyl-6-(((1S,3S)-3,5,12-trihydroxy-3-(2-hydroxyacetyl)-10-methoxy-6,11-dioxo-1,2,3,4,6,11-hexahydrotetracen-1-yl)oxy)tetrahydro-2H-pyran-4-yl)carbamoyl)oxy)ethyl)disulfaneyl)octanoic acid]	–	greater growth inhibition at acidic tumor pH	–	no detectable weight loss	–
COc1cccc2c1C(=O)c1c(O)c3c(c(O)c1C2=O)C[C@@](O)(C(=O)CO)C[C@@H]3O[C@H]1C[C@H](NC(=O)OCCSSCCCc2c(F)c(F)c(O)c(F)c2F)[C@H](O)[C@H](C)O1 [YU244206, 2-((3-(2,3,5,6-tetrafluoro-4-hydroxyphenyl)propyl)disulfaneyl)ethyl ((2S,3S,4S,6R)-3-hydroxy-2-methyl-6-(((1S,3S)-3,5,12-trihydroxy-3-(2-hydroxyacetyl)-10-methoxy-6,11-dioxo-1,2,3,4,6,11-hexahydrotetracen-1-yl)oxy)tetrahydro-2H-pyran-4-yl)carbamate]	–	greater growth inhibition at acidic tumor pH	–	no detectable weight loss	–
